Measured values: patent US20220105051A1, “COMPOUNDS FOR INCREASING MHC-I EXPRESSION AND MODULATING HISTONE DEACETYLASE ACTIVITY” (Cava Healthcare Inc., priority 2019, published 2022)

Test system: A9 cells
Assay: Proteome Profiler Mouse XL cytokine array on A9 cells
Format: cell-based, murine
Settings: 0.014 mg/ml (0.064 umol) vs DMSO
Description: Methods primarily used: Fluorescence Activated Cell Sorting (FACS), western blot, RealTime-PCR (RT-PCR), Proteome Profiler Mouse Cytokine Array Kit (Panel A).
Upon addition of 0.014 mg/ml (0.064 umol) of Curcuphenol, there was a change in the cytokine production of A9 cells, relative to that of cells treated with only vehicle DMSO. This treatment was done in 2 mL of DMEM media, at an initial seeding density of 1×10^6 A9 cells, and treatment with Curcuphenol in DMSO vehicle or DMSO vehicle was done 24 hours after seeding A9 cells. A9 cells are murine metastatic epithelial carcinoma cells. Cytokine change was seen using the Proteome Profiler Mouse XL cytokine array (R&D Systems, ARY028).

CC(C)=CCC[C@H](C)c1ccc(C)cc1O [Curcuphenol, curcuphenol]
No change: Leptin production | Periostin/OSF-2 production | Proprotein Convertase 9/PCSK9 production | VCAM-1/CD106 production
Decrease: Adiponectin/Acrp30 production | Amphiregulin production | Angiopoietin-1 production | CCL2/JE/MCP-1 production | CCL5/RANTES production | CCL6/C10 production | CCL11/Eotaxin production | CCL17/TARC production | CCL22/MDC production | CD160 production | CXCL9/MIG production | CXCL10/IP-10 production | CXCL11/I-TAC production | Chemerin production | E-Selectin/CD62-E production | Endostatin production | Flt-3 Ligand production | IGFBP-2 production | IGFBP-3 production | IGFBP-6 production | IL-6 production | IL-7 production | IL-10 production | IL-11 production | IL-12 p40 production | M-CSF production | MMP-2 production | MMP-3 production | P-Selectin/CD62P production | Pentraxin 2/SAP production | Pref-1/DLK-1/FA1 production | TNF-alpha production | WISP-1/CCN4 production
Increase: Angiopoietin-2 production | Angiopoietin-like 3 production | CCL12/MCP-5 production | CCL19/MIP-3beta production | CD40/TNFRSF5 production | CX3CL1/Fractalkine production | CXCL13/BLC/BCA-1 production | CXCL16 production | Coagulation Factor III/Tissue Factor production | Cystatin C production | DGF-BB production | FGF-21 production | G-CSF production | GDF-15 production | Gas 6 production | IFN-gamma production | IL-1alpha/IL-1F1 production | IL-1beta/IL-1F2 production | IL-1ra/IL-1F3 production | IL-13 production | IL-15 production | IL-28A/B production | IL-33 production | LIX production | Myeloperoxidase production | Osteopontin (OPN) production | Pentraxin 3/TSG-14 production | Proliferin production | Serpin E1/PAI-1 production | Serpin F1/PEDF production | TIM-1/KIM-1/HAVCR production | VEGF production
